Data taken from patent US12384797B2, “Thioeno[3,2-b] pyridin-7-amine compounds for treating familial dysautonomia” (PTC THERAPEUTICS, INC., priority 2019, dated 2025).

Tested on: Elongator complex protein 1 (ELP1, also referred to as IKBKAP)
Test: IKBKAP-HTRF assay (IKBKAP protein in lysates of FD patient-derived fibroblasts)
Assay type: cell-based, human
Details: 48 hours incubation, 7-point concentration curve
Method in brief: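 Sandwich HTRF with two labelled anti-IKAP antibodies (overnight, 4 °C) measured IKBKAP in lysates of FD patient fibroblasts. Cells were exposed to compound for 48 h at 37 °C (7-point curve, 3.16-fold steps, triplicates). EC2x is the dose doubling IKBKAP versus DMSO control; MFI is sample ΔF divided by vehicle ΔF.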

| Compound | EC2x for IKBKAP protein expression (concentration producing two times the amount of IKBKAP protein vs DMSO vehicle control) | MFI (maximum fold increase in IKBKAP protein abundance relative to the vehicle control) |
| --- | --- | --- |
| C[C@H](N)Cc1sc2c(NCc3ccco3)cc(Cl)nc2c1Br [Compound 37, 2-[(2S)-2-aminopropyl]-3-bromo-5-chloro-N-[(furan-2-yl)methyl]thieno[3,2-b]pyridin-7-amine] | ***** (≤0.005 μM is indicated by five stars (*****)) | ***** (>4.9 is indicated by five stars (*****)) |
| COC[C@H](N)Cc1sc2c(NCc3ccco3)cc(Cl)nc2c1C [Compound 45, 2-[(2R)-2-amino-3-methoxypropyl]-5-chloro-N-[(furan-2-yl)methyl]-3-methylthieno[3,2-b]pyridin-7-amine] | ***** (≤0.005 μM is indicated by five stars (*****)) | ***** (>4.9 is indicated by five stars (*****)) |
| CC[C@H](N)Cc1sc2c(NCc3cccs3)cc(Cl)nc2c1Cl [Compound 83, 2-[(2S)-2-aminobutyl]-3,5-dichloro-N-[(thiophen-2-yl)methyl]thieno[3,2-b]pyridin-7-amine] | ***** (≤0.005 μM is indicated by five stars (*****)) | ***** (>4.9 is indicated by five stars (*****)) |
| Oc1csc2c(NCc3cccs3)cc(Cl)nc12 [Compound 138, 5-chloro-7-{[(thiophen-2-yl)methyl]amino}thieno[3,2-b]pyridin-3-ol] | *** (between >0.02 μM and ≤0.5 μM is indicated by three stars (***)) | ** (between >1.9 and ≤2.9 is indicated by two stars (**)) |
| C[C@H](N)C(=O)c1sc2c(NCc3ccco3)cc(Cl)nc2c1Br [Compound 157, (2S)-2-amino-1-(3-bromo-5-chloro-7-{[(furan-2-yl)methyl]amino}thieno[3,2-b]pyridin-2-yl)propan-1-one] | *** (between >0.02 μM and ≤0.5 μM is indicated by three stars (***)) | **** (between >3.9 and ≤4.9 is indicated by four stars (****)) |
| Cc1c(C[C@@H](N)C(=O)Nc2ccccn2)sc2c(NCc3ccco3)cc(Cl)nc12 [Compound 134, 3-(5-chloro-7-{[(furan-2-yl)methyl]amino}-3-methylthieno[3,2-b]pyridin-2-yl)-N-pyridin-2-yl-D-alaninamide] | **** (between >0.005 μM and ≤0.02 μM is indicated by four stars (****)) | ***** (>4.9 is indicated by five stars (*****)) |
| C[C@H](N)C(O)c1sc2c(NCc3cccs3)cc(Cl)nc2c1Br (stereo partly drawn) [Compound 155, (2S)-2-amino-1-(3-bromo-5-chloro-7-{[(thiophen-2-yl)methyl]amino}thieno[3,2-b]pyridin-2-yl)propan-1-ol] | * (An EC2x>1 μM is indicated by one star (*)) | * (An MFI≤1.9 is indicated by one star (*)) |
| Cc1c(C[C@@H](N)CCF)sc2c(NCc3cccs3)cc(Cl)nc12 [Compound 92, 2-[(2S)-2-amino-4-fluorobutyl]-5-chloro-3-methyl-N-[(thiophen-2-yl)methyl]thieno[3,2-b]pyridin-7-amine] | ***** (≤0.005 μM is indicated by five stars (*****)) | ***** (>4.9 is indicated by five stars (*****)) |
| CC[C@H](N)Cc1sc2c(NCc3ccco3)cc(Cl)nc2c1C [Compound 19, 2-[(2S)-2-aminobutyl]-5-chloro-N-[(furan-2-yl)methyl]-3-methylthieno[3,2-b]pyridin-7-amine] | ***** (≤0.005 μM is indicated by five stars (*****)) | ***** (>4.9 is indicated by five stars (*****)) |
| Cc1c(C[C@@H](N)CC#N)sc2c(NCc3ccco3)cc(Cl)nc12 [Compound 111, (3S)-3-amino-4-(5-chloro-7-{[(furan-2-yl)methyl]amino}-3-methylthieno[3,2-b]pyridin-2-yl)butanenitrile] | **** (between >0.005 μM and ≤0.02 μM is indicated by four stars (****)) | ***** (>4.9 is indicated by five stars (*****)) |
| C[C@@H](N)c1cc2nc(Cl)cc(NCc3ccco3)c2s1 [Compound 23, 2-[(1R)-1-aminoethyl]-5-chloro-N-[(furan-2-yl)methyl]thieno[3,2-b]pyridin-7-amine] | * (An EC2x>1 μM is indicated by one star (*)) | ** (between >1.9 and ≤2.9 is indicated by two stars (**)) |
| Clc1cc(NCc2nccs2)c2scc(Br)c2n1 [Compound 9, 3-bromo-5-chloro-N-[(1,3-thiazol-2-yl)methyl]thieno[3,2-b]pyridin-7-amine] | *** (between >0.02 μM and ≤0.5 μM is indicated by three stars (***)) | ***** (>4.9 is indicated by five stars (*****)) |
| Cc1c(C[C@H](C)N)sc2c(NCc3cccs3)cc(Cl)nc12 [Compound 28, 2-[(2S)-2-aminopropyl]-5-chloro-3-methyl-N-[(thiophen-2-yl)methyl]thieno[3,2-b]pyridin-7-amine] | ***** (≤0.005 μM is indicated by five stars (*****)) | ***** (>4.9 is indicated by five stars (*****)) |
| N[C@@H](CO)Cc1sc2c(NCc3nccs3)cc(Cl)nc2c1Br [Compound 71, (2R)-2-amino-3-(3-bromo-5-chloro-7-{[(1,3-thiazol-2-yl)methyl]amino}thieno[3,2-b]pyridin-2-yl)propan-1-ol] | ***** (≤0.005 μM is indicated by five stars (*****)) | ***** (>4.9 is indicated by five stars (*****)) |
| Cc1c(C(C)O)sc2c(NCc3ccco3)cc(Cl)nc12 (centres unmarked) [Compound 3, 1-(5-chloro-7-{[(furan-2-yl)methyl]amino}-3-methylthieno[3,2-b]pyridin-2-yl)ethan-1-ol] | *** (between >0.02 μM and ≤0.5 μM is indicated by three stars (***)) | *** (between >2.9 and ≤3.9 is indicated by three stars (***)) |
| Cc1c(C[C@H](N)CF)sc2c(NCc3ccco3)cc(Cl)nc12 [Compound 59, 2-[(2S)-2-amino-3-fluoropropyl]-5-chloro-N-[(furan-2-yl)methyl]-3-methylthieno[3,2-b]pyridin-7-amine] | *** (between >0.02 μM and ≤0.5 μM is indicated by three stars (***)) | ** (between >1.9 and ≤2.9 is indicated by two stars (**)) |
| N[C@@H](CO)Cc1cc2nc(Cl)cc(NCc3cccs3)c2s1 [Compound 162, (2R)-2-amino-3-(5-chloro-7-{[(thiophen-2-yl)methyl]amino}thieno[3,2-b]pyridin-2-yl)propan-1-ol] | ***** (≤0.005 μM is indicated by five stars (*****)) | **** (between >3.9 and ≤4.9 is indicated by four stars (****)) |
| C[C@H](N)C(F)c1sc2c(NCc3ccco3)cc(Cl)nc2c1Br (stereo partly drawn) [Compound 154, 2-[(2S)-2-amino-1-fluoropropyl]-3-bromo-5-chloro-N-[(furan-2-yl)methyl]thieno[3,2-b]pyridin-7-amine] | ***** (≤0.005 μM is indicated by five stars (*****)) | **** (between >3.9 and ≤4.9 is indicated by four stars (****)) |
| Cc1c([C@@H](C)[C@H](C)N)sc2c(NCc3ccco3)cc(Cl)nc12 [Compound 151, 2-[(2S,3S)-3-aminobutan-2-yl]-5-chloro-N-[(furan-2-yl)methyl]-3-methylthieno[3,2-b]pyridin-7-amine] | *** (between >0.02 μM and ≤0.5 μM is indicated by three stars (***)) | ** (between >1.9 and ≤2.9 is indicated by two stars (**)) |
| Cc1c(C(C)CO)sc2c(NCc3ccco3)cc(Cl)nc12 (centres unmarked) [Compound 146, 2-(5-chloro-7-{[(furan-2-yl)methyl]amino}-3-methylthieno[3,2-b]pyridin-2-yl)propan-1-ol] | * (An EC2x>1 μM is indicated by one star (*)) | * (An MFI≤1.9 is indicated by one star (*)) |
| N[C@H](Cc1sc2c(NCc3cccs3)cc(Cl)nc2c1Br)CC(F)F [Compound 107, 2-[(2S)-2-amino-4,4-difluorobutyl]-3-bromo-5-chloro-N-[(thiophen-2-yl)methyl]thieno[3,2-b]pyridin-7-amine] | ***** (≤0.005 μM is indicated by five stars (*****)) | ***** (>4.9 is indicated by five stars (*****)) |
| 2-[(2R)-2-amino-3-fluoropropyl]-5-chloro-3-cyclopropyl-N-[(thiophen-2-yl)methyl]thieno[3,2-b]pyridin-7-amine [Compound 77] | *** (between >0.02 μM and ≤0.5 μM is indicated by three stars (***)) | **** (between >3.9 and ≤4.9 is indicated by four stars (****)) |
